Among the data in US20190374526A1, “Substituted Heterocyclic Compounds as Inhibitors of PRDM9” (Merck Sharp & Dohme Corp., priority 2018, published 2019) are IC50 values, retold here.

The target of the test is T1, hPRDM9 (amino acids 195-385) (Homo sapiens, UniProt Q9NQV7).
T1 construct: 1.25 nM hPRDM9 (amino acids 195-385)
T1 sequence (Q9NQV7 195-385): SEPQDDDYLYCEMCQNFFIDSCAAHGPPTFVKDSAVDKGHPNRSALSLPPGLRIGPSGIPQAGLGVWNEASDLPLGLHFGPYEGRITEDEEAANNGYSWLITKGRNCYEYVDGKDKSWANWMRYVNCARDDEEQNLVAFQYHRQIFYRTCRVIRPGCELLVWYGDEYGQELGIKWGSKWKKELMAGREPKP
Nature of the test: PRDM9 biochemical assay (radiometric, 3[H] methyl transfer from SAM to biotinylated histone H3 peptide). The note with it: 1 nM hPRDM9, 1 μM biotinylated H3(1-25)K4 peptide, 5 μM 3[H]-SAM, 55 μM un-labeled SAM, 25° C., 30 minutes. Here is the method: The PRDM9 biochemical assay was carried out using a radiometric format involving the transfer of ^3[H] methyl group from S-adenosyl methionine (SAM) to a biotinylated histone H3 peptide (H3(1-25)K4). 10 mM compounds in DMSO were diluted 20 fold in assay buffer (10 mM Tris-HCl, pH 8.5, 10 mM DTT, and 0.01% Triton X-100) before adding […] to a well in a 384 well polypropylene microplate plate and adding 8 μl of reaction mix (1.25 nM hPRDM9 (amino acids 195-385), 1.25 μM biotinylated H3 peptide in assay buffer). The ^3[H]-SAM and cold SAM stock solutions were diluted to 50 μM and 550 μM respectively in assay buffer before aliquoting 1 μl of 50 μM ^3[H]-SAM, 550 μM SAM into each well to initiate the reaction. The assay was performed at 25° C. at the final concentrations of 1 nM hPRDM9, 1 μM peptide, 5 μM ^3[H]-SAM, and 55 μM un-labeled SAM in assay buffer. The reaction was quenched after 30 minutes by adding 25 μl 7.5 M Guanidine-HCl. Quenched reactions were transferred to streptavidin coated Flashplates, diluted two fold in assay buffer, incubated for 1 hour, and read on a Perkin Elmer Topcount instrument. Compound activity was expressed relative to activity of 0.5% (v/v) DMSO treated samples and fit to a four parameter logistic equation to determine IC50 values.

On to `Cc1cc(N2CC3(CCCN(c4cc(-c5cc(Cl)cc(Cl)c5)ccn4)C3)C2)ccn1` [Compound 137, 6-(4-(3,5-dichlorophenyl)pyridin-2-yl)-2-(2-methylpyridin-4-yl)-2,6-diazaspiro[3.5]nonane], for which the IC50 – broadly, the point on the concentration scale where inhibition reaches its midpoint – was determined as 21.5 µM.

With `COc1cc(N2CC3(CCCN(c4nc(-c5cc(Cl)cc(Cl)c5)no4)C3)C2)ccn1` [Compound 193], the IC50 worked out at 2 µM. The figure for `CCC1(CNc2nc(-c3cc(Cl)cc(Cl)c3)no2)CCN(c2ccnc(C)c2)CC1` [Compound 32] is 2.21 µM. Regarding `Cc1cc(N2CCC3CN(c4nc(-c5cc(Cl)cc(Cl)c5)no4)CC32)ccn1` (centres unmarked) [Compound 39], 12.3 µM corresponded to half-maximal inhibition (IC50). The figure for `Cc1cc(N(C)CCCCNc2nc(-c3cc(Cl)cc(Cl)c3)no2)ccn1` [Compound 58] is 24 µM. Under `Cc1cc(N2CC3(CCCN(c4nc(-c5cccc(Cl)c5)no4)C3)C2)ccn1` [Compound 147] stands 0.263 µM; under `Cc1cc(NC2CCC3CN(c4nc(-c5cc(Cl)cc(Cl)c5)no4)CC32)ccn1` (centres unmarked) [Compound 177], 8.64 µM; under `O=c1cc(N2CC3(CCCN(c4nc(-c5cc(Cl)cc(Cl)c5)no4)C3)C2)cc[nH]1` [Compound 208], 5 µM. Compound `COc1cc(OC)cc(-c2noc(N3CC(c4ccccc4)OC4(CCN(c5ccnc(C)c5)CC4)C3)n2)c1` (centres unmarked) [Compound 181] had an IC50 of 2.14 µM.

Turning to `Cc1cc(N2CC3CCN(c4nc(-c5cc(Cl)cc(Cl)c5)no4)C3C2)ccn1` (centres unmarked) [Compound 212], half-maximal inhibition (IC50) required 24 µM. The figure for `Cc1cc(N2CCC(C)(Nc3nc(-c4cc(Cl)cc(Cl)c4)no3)C2)ccn1` (centres unmarked) [Compound 211] is 24 µM; for `Cc1cc(N2CCC3(CC2)CCN(c2nc(-c4cc(Cl)cc(Cl)c4)no2)C3)ccn1` [Compound 214] it is 0.464 µM; for `COc1cc(OC)cc(-c2noc(N3CCCC4(CN(c5ccnc(C)c5)C4)C3)n2)c1` [Compound 182] it is 0.163 µM. Under `Cc1cc(N2CC3(CCCN(c4cc(-c5cc(F)cc(Cl)c5)n[nH]4)C3)C2)ccn1` [Compound 136, 6-(3-(3-chloro-5-fluorophenyl)-1H-pyrazol-5-yl)-2-(2-methylpyridin-4-yl)-2,6-diazaspiro[3.5]nonane] stands 16.5 µM; under `Cc1cc(NC2CCC3CN(c4nc(-c5cc(Cl)cc(Cl)c5)no4)CC32)ccn1` (centres unmarked) [Compound 178], 1.15 µM; under `Cc1cc(N2CCCC3CN(c4nc(-c5cc(Cl)cc(Cl)c5)no4)CC32)ccn1` (centres unmarked) [Compound 210], 35 µM. The figure for `Cc1cc(N2CC3(CCCN(C(=O)Nc4cc(Cl)cc(Cl)c4)C3)C2)ccn1` [Compound 240] is not below 50 µM; for `Cc1cc(NC(C)C2CCCN(c3nc(-c4cc(Cl)cc(Cl)c4)no3)C2)ccn1` (centres unmarked) [Compound 11] it is 19.7 µM; for `COc1cccc(-c2noc(N3CCCC4(CCN(c5ccnc(C)c5)CC4)C3)n2)c1` [Compound 236] it is 0.4 µM. `COc1cc(OC)cc(-c2noc(N3CC4(CCC3=O)CCN(c3ccnc(C)c3)CC4)n2)c1` [Compound 150] showed a 50% inhibitory concentration (IC50) of 0.066 µM. Under `COc1cc(Cl)cc(-c2nc(N3CCCC4(CCN(c5ccnc(C)c5)CC4)C3)no2)c1` [Compound 86] stands 0.28 µM. The figure for `COc1cccc(-c2noc(N3CCCC4(CN(c5ccnc(C)c5)C4)C3)n2)c1` [Compound 142] is 0.203 µM.

`COc1cc(OC)cc(-c2noc(N3CCN(S(C)(=O)=O)C4(CCN(c5ccnc(C)c5)CC4)C3)n2)c1` [Compound 99] yielded an IC50 of 0.07 µM. The figure for `Cc1cc(N2CCC(CNc3nc(-c4cc(Cl)cc(Cl)c4)no3)C2)ccn1` (centres unmarked) [Compound 215] is 11 µM. The figure for `Cc1cc(N2CC[C@H](CNc3nc(-c4cc(Cl)cc(Cl)c4)no3)C2)ccn1` [Compound 235] is 29.5 µM; for `COc1cc(OC)cc(-c2noc(N3CCN(CCO)C4(CCN(c5ccnc(C)c5)CC4)C3)n2)c1` [Compound 98] it is 0.095 µM. The compound `COc1cc(OC)cc(-c2noc(NCC3(O)CN(c4ccnc(C)c4)C3)n2)c1` [Compound 247, 3-(((3-(3,5-dimethoxyphenyl)-1,2,4-oxadiazol-5-yl)amino)methyl)-1-(2-methylpyridin-4-yl)azetidin-3-ol] had an IC50 of 0.65 µM. The figure for `Cc1cc(NC2CC3(CCN(c4nc(-c5cc(Cl)cc(Cl)c5)no4)C3)C2)ccn1` (centres unmarked) [Compound 155] is 3.46 µM; for `Cc1cc(NCC2CCCN(c3nc(-c4cc(Cl)cc(Cl)c4)no3)C2)ccn1` (centres unmarked) [Compound 221] it is 5.38 µM; for `Cc1cc(N[C@H]2CC[C@H](Nc3nc(-c4cc(Cl)cc(Cl)c4)no3)C2)ccn1` (racemic) [Compound 50] it is 16.4 µM. Under `CCOc1cc(OCC)cc(-c2noc(N3CCN(C)C4(CCN(c5ccnc(C)c5)CC4)C3)n2)c1` [Compound 96] stands 0.103 µM; under `Cc1cc(N2CCC3(CC2)CCN(c2nc(-c4cc(Cl)cc(Cl)c4)no2)CC3)ccn1` [Compound 15], 31.6 µM.

`Cc1cc(N2CCC3(CCC(=O)N(c4nc(-c5cc(Cl)cc(Cl)c5)no4)C3)CC2)ccn1` [Compound 28] registered an IC50 of 0.0225 µM. Under `Cc1cc(N2CCC(C3CCN(c4nc(-c5cc(Cl)cc(Cl)c5)no4)CC3)CC2)ccn1` [Compound 65] stands 6.2 µM; under `COc1ccc(-c2noc(N3CCCC4(CN(c5ccnc(C)c5)C4)C3)n2)cc1OC` [Compound 145], 4.7 µM; under `Cc1cc(N2CC3(CC(Nc4nc(-c5cc(Cl)cc(Cl)c5)no4)C3)C2)ccn1` [Compound 234], 8.03 µM. The figure for `Cc1cc(NC2CC23CCN(c2nc(-c4cc(Cl)cc(Cl)c4)no2)C3)ccn1` (centres unmarked) [Compound 156] is 16 µM. The figure for `COc1cc(OC)cc(-c2noc(N3CCN(C)C4(CN(c5ccnc(C)c5)C4)C3)n2)c1` [Compound 164] is 0.315 µM. In the case of `Cc1cc(N2CCC(CNc3nc(-c4cc(Cl)cc(Cl)c4)no3)CC2)ccn1` [Compound 233], it took 2.75 µM to reach half-maximal inhibition (IC50).

Compound `Cc1cc(N2CCC(C3CCN(c4nc(-c5cc(Cl)cc(Cl)c5)no4)C3)CC2)ccn1` (centres unmarked) [Compound 77] showed an IC50 of 2.63 µM. The figure for `COc1cccc(-c2nc(N3CCCC4(CCN(c5ccnc(C)c5)CC4)C3)no2)c1` [Compound 87] is 0.47 µM; for `Cc1cc(N2CC3(CCCN(c4nc(-c5ccccc5)no4)C3)C2)ccn1` [Compound 138, 5-(2-(2-methylpyridin-4-yl)-2,6-diazaspiro[3.5]nonan-6-yl)-3-phenyl-1,2,4-oxadiazole] it is 4.8 µM; for `Cc1cc(N2CCC(CN(C)c3nc(-c4cc(Cl)cc(Cl)c4)no3)CC2)ccn1` [Compound 38] it is 0.16 µM. The figure for `Cc1cc(NCC2(C)CCN(c3nc(-c4cc(Cl)cc(Cl)c4)no3)CC2)ccn1` [Compound 64] is 3.58 µM; for `Cc1cc(NCC2CN(c3nc(-c4cc(Cl)cc(Cl)c4)no3)CCC2C)ccn1` (centres unmarked) [Compound 174] it is 1.58 µM; for `CCc1cc(N2CC3(CCCN(c4nc(-c5cc(Cl)cc(Cl)c5)no4)C3)C2)ccn1` [Compound 207] it is 0.4 µM. `Cc1cc(N2CC3(CCCN(c4nc(-c5cc(Cl)cc(Cl)c5)no4)C3)C2)ccn1` [Compound 116, 3-(3,5-dichlorophenyl)-5-(2-(2-methylpyridin-4-yl)-2,6-diazaspiro[3.5]nonan-6-yl)-1,2,4-oxadiazole]: half-maximal inhibition (IC50) required 0.072 µM. With `COc1cc(OC)cc(-c2noc(N3CCN(C(=O)N(C)C)C4(CCN(c5ccnc(C)c5)CC4)C3)n2)c1` [Compound 101], the midpoint of inhibition, the IC50, lay at 0.45 µM.

In the case of `Cc1cc(N2CC3(CCCN(c4nc(-c5ccccc5Cl)no4)C3)C2)ccn1` [Compound 148], the IC50 was not below 50 µM.

On to `Cc1cc(N2CCC3(CCC3Nc3nc(-c4cc(Cl)cc(Cl)c4)no3)CC2)ccn1` (centres unmarked) [Compound 230], for which the IC50 was determined as 11.5 µM. In the case of `COc1cccc(-c2noc(N3CCOC(CCNc4ccnc(C)c4)C3)n2)c1` (centres unmarked) [Compound 169], inhibition was half-maximal at 2 µM (IC50).

Regarding `Cc1cc(N2CC(C3CCCCN3c3nc(-c4cc(Cl)cc(Cl)c4)no3)C2)ccn1` (centres unmarked) [Compound 44], the midpoint of inhibition, the IC50, lay at 0.5 µM. The figure for `Cc1cc(NC(=O)C2CCN(c3nc(-c4cc(Cl)cc(Cl)c4)no3)CC2)ccn1` [Compound 238, 1-(3-(3,5-dichlorophenyl)-1,2,4-oxadiazol-5-yl)-N-(2-methylpyridin-4-yl)piperidine-4-carboxamide] is not below 50 µM. Under `COc1cc(OC)cc(-c2noc(N3CC(F)(F)OC4(CCN(c5ccnc(C)c5)CC4)C3)n2)c1` [Compound 184] stands 0.814 µM; under `Clc1cc(Cl)cc(-c2noc(N3CCCC4(CN(c5ccncc5)C4)C3)n2)c1` [Compound 203], 1 µM.

As for `Clc1cc(Cl)cc(-c2noc(N3CCCC4(CN(c5cccnn5)C4)C3)n2)c1` [Compound 196], the IC50 turned out to be 19 µM.
